Reference: patent US11230535B2, “CFTR regulators and methods of use thereof” (THE REGENTS OF THE UNIVERSITY OF CALIFORNIA, priority 2015, dated 2022)
“Also recorded” adds a separate entry of the source.

Columns and labels:
[1] = test system: mice; test: Ocular toxicity after chronic topical dosing (slit-lamp, lissamine green staining); type: in vivo; conditions: two weeks, three times per day topical
Experimental: (§1) To assess corneal epithelial disruption, 5 μL of lissamine green (LG) dye (1%) was applied to the ocular surface of isofluorane-anesthetized mice. Photographs of the eye were taken using a Nikon Digital camera adapted to an Olympus Zoom Stereo Microscope (Olympus, Center Valley, Pa., USA). Each corneal quadrant was scored on a 3-point scale by one blinded, trained observer, with the extent of staining in each quadrant classified as: 0, no staining; 1, sporadic (involving <25% of the total surface) staining; grade 2, diffuse punctate staining (25-75%); and grade 3, coalesced punctate staining (≥75%). The total grade is reported as the sum of scores from all four quadrants, ranging from 0 to 12.
as §1, with “Lissamine green staining. To” for “To”

[2] = test system: BALB/c mice after lacrimal gland excision; test: Lacrimal gland excision (LGE) mouse model of aqueous-deficient dry eye; type: in vivo
Experimental: as §1
A lacrimal gland excision (LGE) model of aqueous-deficient dry eye was adapted from a reported method (30). The extraorbital lacrimal gland was exposed on each side of wild-type female BALB/c mice (7-8 weeks of age) by 3-mm linear skin incisions. Lacrimal ducts were cauterized and the entire gland was removed bilaterally, avoiding facial vessels and nerves. Incisions were each closed with a single interrupted 6-0 silk suture. Orbital lacrimal tissue remained functional. Eyes with reduced corneal sensation (<5% of mice studied), as identified from neurotrophic corneal ulcers within 1 day of LGE, were excluded. Mice were randomized to receive either treatment (in both eyes) with CFTRact-K089 (0.1 nmol) or vehicle. Mice were treated three times daily (8 AM, 2 PM and 8 PM) for 2 weeks starting on Day 1 after LGE. Tear secretion and LG staining were performed immediately prior to, and one hour after the initial dose on day 4, 10 and 14 after LGE.
Lissamine green staining. […] Each corneal quadrant was scored on a 3-point scale by one blinded, trained observer, with the extent of staining in each quadrant classified as: 0, no staining; 1, sporadic (involving <25% of the total surface) staining; grade 2, diffuse punctate staining (25-75%); and grade 3, coalesced punctate staining (≥75%). […]

[3] = Tear film pharmacokinetics (LC/MS of tear washes)
[4] = test system: mouse colon; test: Short-circuit current in freshly harvested mouse colon; conditions: freshly isolated mouse colon; read-out: EC50, increase in short-circuit current (Cl− secretion)
Experimental: Short-circuit current was measured in FRT cells stably expressing wild-type human CFTR cultured on porous filters as described. The basolateral solution contained 130 mM NaCl, 2.7 mM KCl, 1.5 mM KH2PO4, 1 mM CaCl2, 0.5 mM MgCl2, 10 mM glucose, and 10 mM Na-HEPES (pH 7.3, 37° C.). In the apical solution 65 mM NaCl was replaced by Na gluconate, and CaCl2 was increased to 2 mM, and the basolateral membrane was permeabilized with 250 μg/ml amphotericin B. Short-circuit current was measured in freshly harvested adult mouse colon at 37° C. using symmetrical Krebs-bicarbonate buffer.
Short-circuit current measurement. Short-circuit current was measured in FRT cells stably expressing wild-type human CFTR cultured on porous filters as described. The basolateral solution contained 130 mM NaCl, 2.7 mM KCl, 1.5 mM KH2PO4, 1 mM CaCl2, 0.5 mM MgCl2, 10 mM glucose, and 10 mM Na-HEPES (pH 7.3, 37° C.). In the apical solution 65 mM NaCl was replaced by Na gluconate, and CaCl2 was increased to 2 mM, and the basolateral membrane was permeabilized with 250 μg/ml amphotericin B. Short-circuit current was measured in freshly harvested adult mouse colon at 37° C. using symmetrical Krebs-bicarbonate buffer.

[5] = test system: cAMP; test: cAMP GloSensor luminescence assay in FRT cells; type: cell-based, rat
Experimental: Intracellular cAMP activity was measured using a GloSensor luminescence assay (Promega Corp., Madison, Wis., USA). FRT null cells were stably transfected with the pGloSensor cAMP plasmid and plated onto white 96-well microplates and grown to confluence. Cells were washed three times with PBS and incubated with 5 μM CFTRact-J027 for 10 min in the absence and presence of 100 nM forskolin. cAMP was assayed according to the manufacturer's instructions.
Intracellular cAMP activity was measured using a GloSensor luminescence assay (Promega Corp., Madison, Wis., USA). FRT cells stably transfected with the pGloSensor cAMP plasmid (Promega Corp.) were cultured in white 96-well microplates (Corning Costar) overnight. Cells were then washed three times with PBS and incubated with 5 μM test compound for 10 min in the absence and presence of 100 nM forskolin.
cAMP assay. Intracellular cAMP activity was measured using a GloSensor luminescence assay (Promega Corp., Madison, Wis., USA). FRT null cells were stably transfected with the pGloSensor cAMP plasmid and plated onto white 96-well microplates and grown to confluence. […]
cAMP and cytotoxicity assays. Intracellular cAMP activity was measured using a GloSensor luminescence assay (Promega Corp., Madison, Wis., USA). […]

[6] = 0.1 nmol topical three times daily

Structure (SMILES) | LG staining after chronic dosing [1] | ocular toxicity (slit-lamp: conjunctival hyperemia, anterior chamber inflammation, lens clarity) [1] | LG score change ([2]; 0.1 nmol three times daily, by Day 14, 12-point scale) | corneal / ocular surface epithelial disruption after LGE [2, 6] | tear secretion / tear volume after LGE [2, 6] | amount recovered from tear fluid at six hours ([3]; 0.1 nmol (2 μL, 50 μM) instilled) [pmol] | duration of predicted therapeutic levels in tear fluid ([3]; 0.1 nmol instilled) | tear film bioavailability, in words ([3]; topical) | EC50 [4] [nM] | cellular cAMP, added together with forskolin ([5]; 5 μM + 100 nM forskolin) | cellular cAMP, compound alone ([5]; 5 μM, 10 min)
CCN(CC)c1nc(Nc2ccccc2)nc(OC(C(F)(F)F)C(F)(F)F)n1 [CFTRact-K089, N,N-Diethyl-6-[(1,1,1,3,3,3-hexafluoropropan-2-yl)oxy]-N′-phenyl-1,3,5-triazine-2,4-diamine] | no corneal or conjunctival epithelial disruption | no signs of ocular toxicity | −0.6±0.6 | fully prevented the corneal epithelial disruption; also recorded: prevented ocular surface epithelial disruption at all time points | restored tear secretion to basal levels; also recorded: maintained basal tear volume | 0.011 ± 0.004 | at least six | sustained tear film bioavailability |  |  | 
Nc1ccc([N+](=O)[O-])cc1-c1nc2ccccc2n(Cc2ccccc2)c1=O [CFTRact-J027, 3-(2-amino-5-nitrophenyl)-1-benzylquinoxalin-2(1H)-one] | no corneal or conjunctival epithelial disruption | no signs of ocular toxicity |  |  |  |  |  |  | ~300 | does not further increase cAMP | without causing elevation of cytoplasmic cAMP; also recorded: does not elevate cellular cAMP
